Where “and” joins values, the source holds several entries; their conditions need not be identical. Equal values may be shown once.
Tested on: innately activated TLR4 signal in P rat VTA
Test: TLR4 signaling in P rat VTA after systemic neurosteroid (immunoblot, MCP-1 ELISA)
Type: in vivo
Details: 45 minutes
Procedure: Immunoblotting for whole VTA lysates was done as previously described (Carlson et al, 2013). Briefly, VTA micropunches (1 mm thick) were lysed with CelLytic MT (dialyzable mild detergent, bicine, and 150 mM NaCl; Sigma-Aldrich) and protease and phosphatase inhibitor cocktail according to the manufacturer's instructions. Total protein was determined by the BCA assay. The proteins (10 μg/lane) were resolved by NuPAGE™ 4-12% Bis-Tris Midi Protein Gel (Thermo Fisher, Waltham, Mass.) electrophoresis and transferred using the iBlot 2 Dry Blotting System (Thermo Fisher, Waltham, Mass.). Blots were then exposed to an antibody for β-actin for normalization. Proteins were detected with enhanced chemilumenescence (GE Healthcare, Amersham, UK). Membranes were exposed to film under non-saturating conditions. Densitometric analysis was conducted using NIH Image 1.57.
Animals. Selectively bred, but alcohol naïve Alcohol-preferring (P) rats (male, 3-4 months old; 250-550 g) (n=7-9/group) were obtained from the Alcohol Research Center, Indiana University School of Medicine, Animals were double housed in Plexiglas cages containing corn cob bedding and food and water was available ad libitum. The colony room was maintained on a normal 12 hr light-dark cycle (light onset at 0700 hr). Procedures followed National Institutes of Health Guidelines under UNC institutional Animal Care and Use Committee approved protocols at University of North Carolina School of Medicine. Rats were habituated to handling for 7 days prior to administration of 3α,5α-THP (15 mg/kg, IP), pregnenolone (75 mg/kg, IP), 3α,5α-THDOC (15 mg/kg, IP), or vehicle (45% w/v 2-hydroxypropyl-p-cyclodextrin) and returned to their home cage. Rats were sacrificed after 45 minutes and the brain was removed and frozen at −80° C. until VTA micropunches were collected from 1 mm cryostat brain sections. This time point was selected because 3α,5α-THP is rapidly metabolized in vivo (Purdy et al, 1990), but has behavioral and pharmacological activity at this time point (Crawley et al, 1986).
ELISA. Brain tissue micropunches were lysed with Cellyte MT and the extracts were assayed for protein content by the BCA procedure (Pierce) and for MCP-1 using the rat MCP-1 ELISA kit (Raybiotech—ERC-MCP-1-CL; Norcross, Ga., USA) or for fracktalkine using the rat fractalkine ELISA kit (Raybiotech—ERC-CX3CL1-CL; Norcross, Ga., USA) as per manufacturer's instructions.
Since the neurosteroids inhibited the TLR4 activation signal in cultured macrophage cells, experiments were conducted to determine whether this also occurs in the brain. Selectively bred P rats that have an innately activated TLR4 signal in the VTA (Liu J, et al. (2011). Proc Natl Acad Sci USA 108(11): 4465-4470), were administered 3α,5α-THP (15 mg/kg, IP) or pregnenolone (75 mg/kg, IP), sacrificed after 45 minutes and examined for TLR4 signaling using parallel measures. […] 3α,5α-THP administration reduced the levels of MCP-1 by 20±9% (p<0.05), TRAF6 by 19±3% (p<0.0001), and CRF by 28±9% (p<0.01), with no effect on TLR4 protein expression (FIG. 4A). Pregnenolone administration had no effect on TRAF6, CRF, or TLR4.

Structure (SMILES) | effect on CRF in VTA (75 mg/kg IP, P rats) | effect on TLR4 in VTA (75 mg/kg IP, P rats) | effect on TRAF6 in VTA (75 mg/kg IP, P rats) | effect on TLR4 protein expression in VTA (15 mg/kg IP, P rats) | reduction of CRF levels in VTA (15 mg/kg IP, male P rats) | reduction of TRAF6 levels in VTA (15 mg/kg IP, male P rats) | reduction of MCP-1 levels in VTA (15 mg/kg IP, male P rats, ELISA)
CC(=O)[C@H]1CC[C@H]2[C@@H]3CC=C4C[C@@H](O)CC[C@]4(C)[C@H]3CC[C@]12C [pregnenolone] | no effect | no effect | no effect | – | – | – | –
CC(=O)[C@H]1CC[C@H]2[C@@H]3CC[C@H]4C[C@H](O)CC[C@]4(C)[C@H]3CC[C@]12C [3α,5α-THP, (3α,5α)3-hydroxypregnan-20-one] | – | – | – | no effect | 28±9% and ~30% | 19±3% and ~20% | 20±9% and ~20%
